Reference: patent publication US11945798B2, “Substituted aminopyridine compounds as EGFR inhibitors” (YUHAN CORPORATION, priority 2021, dated 2024)
Read-outs that look alike come from different tables or passages of the source.

What was measured:
EGFR wildtype (WT) = EGFR wildtype (WT) (Homo sapiens, UniProt P00533); assay: Biochemical EGFR kinase assay (Lance Ultra TR-FRET), wildtype
Experimental: (§1) Biochemical EGFR kinase assays were conducted using Lance Ultra time-resolved fluorescence resonance energy transfer (TR-FRET) technology from Perkin-Elmer. Compounds of the invention were initially diluted to 20 mM in 100% DMSO for storage and made into kinase buffer solution to create a compound concentration ranging from 0.003 μM and 10 μM.
(§2) Each kinase reactions were incubated at room temperature for 1 hour and then stopped by the addition of 4 μL of stop solution (10 mM EDTA). The specific Europium-labeled-anti-phosphopeptide antibody (PerkinElmer, AD0069) diluted in LANCE detection buffer was then added to a final concentration of 2 nM. After 60 minutes incubation at room temperature the LANCE signal was measured on an EnVision Multilabel Reader (Perkin-Elmer). Excitation wavelength was set at 320 nm and emission monitored at 615 nm (donor) and 665 nm (acceptor). The IC50 values were determined using GraphPad prism software (GraphPad Software, Inc., San Diego, CA, USA).

EGFR del19/C797S = EGFR del19/C797S (Homo sapiens, UniProt P00533, C797S/DEL746-750); assay: Biochemical EGFR kinase assay (Lance Ultra TR-FRET), del19/C797S
Experimental: as §1, §2

EGFR L858R/T790M/C797S = EGFR L858R/T790M/C797S (Homo sapiens, UniProt P00533, C797S/L858R/T790M); assay: Biochemical EGFR kinase assay (Lance Ultra TR-FRET), L858R/T790M/C797S
Experimental: as §1, §2

EGFR L858R/C797S = EGFR L858R/C797S (Homo sapiens, UniProt P00533, C797S/L858R); assay: Biochemical EGFR kinase assay (Lance Ultra TR-FRET), L858R/C797S
Experimental: as §1, §2

EGFR del19/T790M/C797S = EGFR del19/T790M/C797S (Homo sapiens, UniProt P00533, C797S/DEL746-750/T790M); assay: Biochemical EGFR kinase assay (Lance Ultra TR-FRET), del19/T790M/C797S
Experimental: as §1, §2

[1] = Km ATP, read-out: IC50 WT (nM) Km ATP
[2] = Km ATP, read-out: IC50 del19/C797S (nM) Km ATP
[3] = Km ATP, read-out: IC50 L858R/T790M/C797S (nM) Km ATP
[4] = Km ATP, read-out: IC50 L858R/C797S (nM) Km ATP
[5] = Km ATP, read-out: IC50 del19/T790M/C797S (nM) Km ATP
[6] = IC50 WT (nM) 100 μM ATP, 100 μM ATP
[7] = IC50 del19/C797S (nM) 100 μM ATP, 100 μM ATP
[8] = IC50 L858R/T790M/C797S (nM) 100 μM ATP, 100 μM ATP
[9] = IC50 L858R/C797S (nM) 100 μM ATP, 100 μM ATP
[10] = IC50 del19/T790M/C797S (nM) 100 μM ATP, 100 μM ATP

EGFR wildtype (WT), sequence (P00533 25-1210): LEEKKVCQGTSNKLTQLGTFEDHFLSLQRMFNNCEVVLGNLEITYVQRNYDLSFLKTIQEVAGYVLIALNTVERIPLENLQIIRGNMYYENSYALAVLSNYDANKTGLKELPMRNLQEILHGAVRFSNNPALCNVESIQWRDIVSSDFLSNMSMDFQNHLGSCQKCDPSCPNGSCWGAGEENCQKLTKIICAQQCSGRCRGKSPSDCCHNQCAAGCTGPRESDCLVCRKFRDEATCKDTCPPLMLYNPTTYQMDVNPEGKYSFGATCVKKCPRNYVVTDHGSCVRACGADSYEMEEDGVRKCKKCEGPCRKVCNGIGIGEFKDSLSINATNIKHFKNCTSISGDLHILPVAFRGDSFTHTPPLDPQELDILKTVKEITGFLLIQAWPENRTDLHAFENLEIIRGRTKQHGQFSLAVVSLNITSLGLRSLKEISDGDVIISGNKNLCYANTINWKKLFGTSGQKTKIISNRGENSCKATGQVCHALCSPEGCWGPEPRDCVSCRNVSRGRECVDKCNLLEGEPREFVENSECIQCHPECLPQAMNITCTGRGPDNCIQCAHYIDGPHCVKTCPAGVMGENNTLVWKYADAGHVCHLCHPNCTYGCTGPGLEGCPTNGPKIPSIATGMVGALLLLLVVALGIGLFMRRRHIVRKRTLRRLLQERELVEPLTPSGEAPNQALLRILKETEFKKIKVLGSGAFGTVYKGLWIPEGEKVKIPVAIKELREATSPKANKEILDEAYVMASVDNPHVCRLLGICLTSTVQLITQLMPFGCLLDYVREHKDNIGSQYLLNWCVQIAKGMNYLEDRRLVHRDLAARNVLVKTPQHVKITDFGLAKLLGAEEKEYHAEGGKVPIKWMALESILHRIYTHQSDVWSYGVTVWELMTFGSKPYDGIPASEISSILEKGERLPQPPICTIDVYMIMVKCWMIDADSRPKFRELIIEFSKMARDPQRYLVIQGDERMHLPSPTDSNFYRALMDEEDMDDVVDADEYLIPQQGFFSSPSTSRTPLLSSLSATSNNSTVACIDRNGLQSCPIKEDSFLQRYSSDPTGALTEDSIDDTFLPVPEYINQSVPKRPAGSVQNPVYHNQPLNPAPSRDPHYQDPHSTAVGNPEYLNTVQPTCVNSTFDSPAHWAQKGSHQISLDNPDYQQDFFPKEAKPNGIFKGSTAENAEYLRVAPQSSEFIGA
EGFR del19/T790M/C797S, sequence (P00533 with tags, fused parts or gaps DEL746-750/T790M/C797S): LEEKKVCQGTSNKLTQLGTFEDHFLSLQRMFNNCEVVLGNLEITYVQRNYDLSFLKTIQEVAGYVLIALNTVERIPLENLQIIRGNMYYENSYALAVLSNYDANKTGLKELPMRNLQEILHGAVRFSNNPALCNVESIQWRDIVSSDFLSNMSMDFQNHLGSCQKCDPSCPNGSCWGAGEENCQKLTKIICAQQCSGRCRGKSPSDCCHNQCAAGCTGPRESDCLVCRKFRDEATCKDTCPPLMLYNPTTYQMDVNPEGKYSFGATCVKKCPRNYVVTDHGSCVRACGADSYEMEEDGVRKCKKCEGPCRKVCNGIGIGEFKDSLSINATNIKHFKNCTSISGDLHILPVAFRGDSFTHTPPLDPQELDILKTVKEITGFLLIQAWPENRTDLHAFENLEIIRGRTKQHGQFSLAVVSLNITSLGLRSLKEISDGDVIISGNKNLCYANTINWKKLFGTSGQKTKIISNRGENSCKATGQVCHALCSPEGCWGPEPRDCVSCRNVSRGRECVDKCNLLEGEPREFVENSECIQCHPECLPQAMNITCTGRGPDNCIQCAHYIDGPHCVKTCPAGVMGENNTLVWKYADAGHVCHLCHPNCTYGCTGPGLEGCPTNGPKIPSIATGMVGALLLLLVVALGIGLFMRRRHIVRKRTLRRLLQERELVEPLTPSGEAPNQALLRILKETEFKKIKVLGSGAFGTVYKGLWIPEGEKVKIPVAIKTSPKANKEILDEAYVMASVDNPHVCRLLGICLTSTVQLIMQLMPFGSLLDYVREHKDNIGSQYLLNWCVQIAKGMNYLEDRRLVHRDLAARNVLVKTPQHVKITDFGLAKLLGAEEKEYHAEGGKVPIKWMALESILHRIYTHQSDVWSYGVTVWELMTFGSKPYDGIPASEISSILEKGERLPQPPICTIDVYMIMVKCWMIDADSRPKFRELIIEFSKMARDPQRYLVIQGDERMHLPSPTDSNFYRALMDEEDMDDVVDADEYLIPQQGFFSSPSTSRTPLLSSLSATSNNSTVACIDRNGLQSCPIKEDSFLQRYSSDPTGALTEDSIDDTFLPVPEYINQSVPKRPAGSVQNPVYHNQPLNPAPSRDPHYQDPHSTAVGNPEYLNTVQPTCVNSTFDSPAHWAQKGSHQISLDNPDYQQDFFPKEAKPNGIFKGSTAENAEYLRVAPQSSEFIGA
EGFR del19/C797S, sequence (P00533 with tags, fused parts or gaps DEL746-750/C797S): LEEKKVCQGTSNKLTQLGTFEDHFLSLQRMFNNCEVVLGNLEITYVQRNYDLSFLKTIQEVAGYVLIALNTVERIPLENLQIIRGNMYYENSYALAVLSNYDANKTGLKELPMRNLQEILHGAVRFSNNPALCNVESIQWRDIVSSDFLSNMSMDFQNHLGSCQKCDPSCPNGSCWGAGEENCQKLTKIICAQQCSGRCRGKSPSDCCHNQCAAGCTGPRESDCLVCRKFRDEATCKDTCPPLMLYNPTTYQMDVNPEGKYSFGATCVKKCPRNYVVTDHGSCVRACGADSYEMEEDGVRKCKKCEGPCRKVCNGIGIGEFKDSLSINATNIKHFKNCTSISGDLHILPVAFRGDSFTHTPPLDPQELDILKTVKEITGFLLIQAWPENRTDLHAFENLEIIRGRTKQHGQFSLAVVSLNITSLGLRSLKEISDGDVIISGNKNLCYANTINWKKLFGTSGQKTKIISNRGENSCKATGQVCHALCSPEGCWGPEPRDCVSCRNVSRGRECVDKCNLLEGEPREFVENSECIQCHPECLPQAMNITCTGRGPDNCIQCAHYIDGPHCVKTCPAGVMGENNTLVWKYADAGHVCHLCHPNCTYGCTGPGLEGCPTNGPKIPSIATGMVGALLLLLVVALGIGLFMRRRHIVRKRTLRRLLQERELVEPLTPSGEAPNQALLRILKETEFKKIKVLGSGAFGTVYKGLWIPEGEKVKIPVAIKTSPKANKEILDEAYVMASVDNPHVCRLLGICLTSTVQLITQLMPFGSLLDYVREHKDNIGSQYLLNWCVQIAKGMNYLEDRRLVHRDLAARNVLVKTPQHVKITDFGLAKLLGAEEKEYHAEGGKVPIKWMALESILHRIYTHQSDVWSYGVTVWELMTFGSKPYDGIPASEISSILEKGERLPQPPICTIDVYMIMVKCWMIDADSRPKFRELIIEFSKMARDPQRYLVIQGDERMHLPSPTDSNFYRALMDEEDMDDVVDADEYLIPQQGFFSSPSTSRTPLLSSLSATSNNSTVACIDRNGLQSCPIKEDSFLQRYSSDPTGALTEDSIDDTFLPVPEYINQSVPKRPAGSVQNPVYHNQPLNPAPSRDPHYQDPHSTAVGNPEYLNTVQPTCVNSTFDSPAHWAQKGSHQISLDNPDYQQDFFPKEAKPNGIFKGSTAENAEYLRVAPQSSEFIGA
EGFR L858R/C797S, sequence (P00533 25-1210 C797S/L858R): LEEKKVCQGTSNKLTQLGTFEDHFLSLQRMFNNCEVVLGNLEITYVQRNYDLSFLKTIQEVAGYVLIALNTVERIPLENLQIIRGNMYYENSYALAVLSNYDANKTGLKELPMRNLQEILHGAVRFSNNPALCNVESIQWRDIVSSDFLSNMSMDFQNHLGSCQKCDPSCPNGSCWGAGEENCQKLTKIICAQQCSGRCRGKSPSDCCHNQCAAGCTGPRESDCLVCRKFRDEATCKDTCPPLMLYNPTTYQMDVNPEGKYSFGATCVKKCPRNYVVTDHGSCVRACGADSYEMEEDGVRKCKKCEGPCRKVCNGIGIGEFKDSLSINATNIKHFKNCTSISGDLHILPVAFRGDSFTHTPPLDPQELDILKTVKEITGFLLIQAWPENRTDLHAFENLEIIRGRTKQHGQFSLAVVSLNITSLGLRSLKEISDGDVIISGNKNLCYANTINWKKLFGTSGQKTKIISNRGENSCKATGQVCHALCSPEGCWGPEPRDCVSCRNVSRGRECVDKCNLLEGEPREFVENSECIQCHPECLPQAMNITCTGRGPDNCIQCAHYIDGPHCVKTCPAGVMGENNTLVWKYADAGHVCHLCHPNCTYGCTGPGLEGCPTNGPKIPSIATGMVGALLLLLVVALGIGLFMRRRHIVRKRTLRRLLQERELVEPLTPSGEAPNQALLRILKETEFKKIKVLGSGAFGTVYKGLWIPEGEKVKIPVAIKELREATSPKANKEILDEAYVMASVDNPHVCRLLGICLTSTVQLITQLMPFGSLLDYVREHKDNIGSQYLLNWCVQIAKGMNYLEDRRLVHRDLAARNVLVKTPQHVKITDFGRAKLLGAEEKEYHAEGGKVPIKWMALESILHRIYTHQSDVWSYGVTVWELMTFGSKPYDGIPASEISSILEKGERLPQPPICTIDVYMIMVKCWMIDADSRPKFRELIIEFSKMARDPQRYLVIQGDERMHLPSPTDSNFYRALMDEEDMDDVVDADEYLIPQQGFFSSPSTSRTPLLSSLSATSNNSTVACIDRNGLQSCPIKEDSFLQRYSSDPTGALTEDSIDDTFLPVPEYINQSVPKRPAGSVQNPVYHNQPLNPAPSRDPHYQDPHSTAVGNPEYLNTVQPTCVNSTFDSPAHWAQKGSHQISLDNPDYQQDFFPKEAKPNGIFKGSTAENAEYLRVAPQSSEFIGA

SMILES	IC50 (EGFR wildtype (WT); [1])	IC50 (EGFR del19/C797S; [2])	IC50 (EGFR L858R/T790M/C797S; [3])	IC50 (EGFR L858R/C797S; [4])	IC50 (EGFR del19/T790M/C797S; [5])	IC50 (EGFR wildtype (WT); [6])	IC50 (EGFR del19/C797S; [7])	IC50 (EGFR L858R/T790M/C797S; [8])	IC50 (EGFR L858R/C797S; [9])	IC50 (EGFR del19/T790M/C797S; [10])
CN(C)C1CCN(CCNc2cc(Nc3ccnc(-c4cnn(S(=O)(=O)C5CC5)c4)n3)ncc2C(=O)C2CC2)CC1 [Example 21, Cyclopropyl(6-((2-(1-(cyclopropylsulfonyl)-1H-pyrazol-4-yl)pyrimidin-4-yl)amino)-4-((2-(4-(dimethylamino)piperidin-1-yl)ethyl)amino)pyridin-3-yl)methanone]	63.5 nM	72.3 nM	1.1 nM	16.4 nM	0.4 nM	–	–	–	–	–
O=C(c1cnc(Nc2ccnc(-c3cnn(S(=O)(=O)C4CC4)c3)n2)cc1N[C@H]1CCC[C@H](O)C1)C1CC1 [Example 22, Cyclopropyl(6-((2-(1-(cyclopropylsulfonyl)-1H-pyrazol-4-yl)pyrimidin-4-yl)amino)-4-(((1S,3S)-3-hydroxycyclohexyl)amino)pyridin-3-yl)methanone]	–	–	–	–	–	> 10000 nM	14 nM	1.1 nM	33.2 nM	0.9 nM
O=C(c1cnc(Nc2ccnc(-c3cnn(S(=O)(=O)C4CC4)c3)n2)cc1N[C@H]1CC[C@@H](O)CC1)C1CC1 [Example 23, Cyclopropyl(6-((2-(1-(cyclopropylsulfonyl)-1H-pyrazol-4-yl)pyrimidin-4-yl)amino)-4-(((1s,4s)-4-hydroxycyclohexyl)amino)pyridin-3-yl)methanone]	–	–	–	–	–	3410 nM	2.4 nM	0.5 nM	6.4 nM	0.7 nM
O=C(c1cnc(Nc2ccnc(-c3cnn(S(=O)(=O)C4CC4)c3)n2)cc1N[C@H]1CC[C@@H](O)C1)C1CC1 [Example 25, Cyclopropyl(6-((2-(1-(cyclopropylsulfonyl)-1H-pyrazol-4-yl)pyrimidin-4-yl)amino)-4-(((1S,3R)-3-hydroxycyclopentyl)amino)pyridin-3-yl)methanone]	–	–	–	–	–	> 10000 nM	11.8 nM	1 nM	29.4 nM	0.9 nM
O=C(c1cnc(Nc2ccnc(-c3cnn(S(=O)(=O)C4CC4)c3)n2)cc1N[C@@H]1CC[C@@H](O)C1)C1CC1 [Example 26, Cyclopropyl(6-((2-(1-(cyclopropylsulfonyl)-1H-pyrazol-4-yl)pyrimidin-4-yl)amino)-4-(((1R,3R)-3-hydroxycyclopentyl)amino)pyridin-3-yl)methanone]	–	–	–	–	–	> 10000 nM	55.3 nM	3.3 nM	118 nM	2.9 nM
CC(C)(CO)CNc1cc(Nc2ccnc(-c3cnn(S(=O)(=O)C4CC4)c3)n2)ncc1C(=O)C1CC1 [Example 28, Cyclopropyl(6-((2-(1-(cyclopropylsulfonyl)-1H-pyrazol-4-yl)pyrimidin-4-yl)amino)-4-((3-hydroxy-2,2-dimethylpropyl)amino)pyridin-3-yl)methanone]	–	–	–	–	–	> 10000 nM	176 nM	32.1 nM	234 nM	2.6 nM
O=C(c1cnc(Nc2ccnc(-c3cnn(S(=O)(=O)C4CC4)c3)n2)cc1NCCC1(O)CC1)C1CC1 [Example 29, Cyclopropyl(6-((2-(1-(cyclopropylsulfonyl)-1H-pyrazol-4-yl)pyrimidin-4-yl)amino)-4-((2-(1-hydroxycyclopropyl)ethyl)amino)pyridin-3-yl)methanone]	–	–	–	–	–	> 10000 nM	3.5 nM	10 nM	120 nM	1.8 nM
CN[C@H]1CC[C@@H](Nc2cc(Nc3ccnc(-c4cnn(S(=O)(=O)C5CC5)c4)n3)ncc2C(=O)C2CC2)CC1 [Example 32, Cyclopropyl-(6-((2-(1-(cyclopropylsulfonyl)-1H-pyrazol-4-yl)pyrimidin-4-yl)amino)-4-(((1s,4s)-4-(methylamino)cyclohexyl)amino)pyridin-3-yl)methanone]	–	–	–	–	–	> 10000 nM	51.1 nM	2 nM	54.7 nM	1.2 nM
C[C@]1(O)CC[C@@H](Nc2cc(Nc3ccnc(-c4cnn(S(=O)(=O)C5CC5)c4)n3)ncc2C(=O)C2CC2)CC1 [Example 33, Cyclopropyl(6-((2-(1-(cyclopropylsulfonyl)-1H-pyrazol-4-yl)pyrimidin-4-yl)amino)-4-(((1s,4s)-4-hydroxy-4-methylcyclohexyl)amino)pyridin-3-yl)methanone]	13.9 nM	–	0.3 nM	0.9 nM	1 nM	> 10000 nM	1.7 nM	0.8 nM	6.5 nM	0.8 nM
O=C(c1cnc(Nc2ccnc(-c3cnn(S(=O)(=O)C4CC4)c3)n2)cc1NC1CCCOC1)C1CC1 (centres unmarked) [Example 34, Cyclopropyl(6-((2-(1-(cyclopropylsulfonyl)-1H-pyrazol-4-yl)pyrimidin-4-yl)amino)-4-((tetrahydro-2H-pyran-3-yl)amino)pyridin-3-yl)methanone]	–	–	–	–	–	> 10000 nM	124 nM	5.3 nM	398 nM	2 nM
O=C(c1cnc(Nc2ccnc(-c3cnn(S(=O)(=O)C4CC4)c3)n2)cc1NC1CCOCC1)C1CC1 [Example 35, Cyclopropyl(6-((2-(1-(cyclopropylsulfonyl)-1H-pyrazol-4-yl)pyrimidin-4-yl)amino)-4-((tetrahydro-2H-pyran-4-yl)amino)pyridin-3-yl)methanone]	–	–	–	–	–	> 10000 nM	602 nM	23.1 nM	543 nM	5.2 nM
O=C(c1cnc(Nc2ccnc(-c3cnn(S(=O)(=O)C4CC4)c3)n2)cc1NC1CC[C@@H](O)[C@@H](O)C1)C1CC1 (stereo partly drawn) [Example 36, Cyclopropyl(6-((2-(1-(cyclopropylsulfonyl)-1H-pyrazol-4-yl)pyrimidin-4-yl)amino)-4-(((3S,4R)-3,4-dihydroxycyclohexyl)amino)pyridin-3-yl)methanone]	–	–	–	–	–	> 10000 nM	5.4 nM	0.9 nM	15.5 nM	0.5 nM
CN(C)CCN1CCC(Nc2cc(Nc3ccnc(-c4cnn(S(=O)(=O)C5CC5)c4)n3)ncc2C(=O)C2CC2)CC1 [Example 37, Cyclopropyl(6-((2-(1-(cyclopropylsulfonyl)-1H-pyrazol-4-yl)pyrimidin-4-yl)amino)-4-((1-(2-(dimethylamino)ethyl)piperidin-4-yl)amino)pyridin-3-yl)methanone]	113 nM	36.9 nM	0.4 nM	9.7 nM	1 nM	> 10000 nM	79.9 nM	2 nM	168 nM	1.2 nM
O=C(c1cnc(Nc2ccnc(-c3cnn(S(=O)(=O)C4CC4)c3)n2)cc1NC1CCN(C2COC2)CC1)C1CC1 [Example 38, Cyclopropyl(6-((2-(1-(cyclopropylsulfonyl)-1H-pyrazol-4-yl)pyrimidin-4-yl)amino)-4-((1-(oxetan-3-yl)piperidin-4-yl)amino)pyridin-3-yl)methanone]	–	–	–	–	–	> 10000 nM	231 nM	9.9 nM	200 nM	2.7 nM
O=C(c1cnc(Nc2ccnc(-c3cnn(S(=O)(=O)C4CC4)c3)n2)cc1NC1CCCN(CCF)C1)C1CC1 (centres unmarked) [Example 39, Cyclopropyl(6-((2-(1-(cyclopropylsulfonyl)-1H-pyrazol-4-yl)pyrimidin-4-yl)amino)-4-((1-(2-fluoroethyl)piperidin-3-yl)amino)pyridin-3-yl)methanone]	470 nM	38.4 nM	1.9 nM	19 nM	2.9 nM	> 10000 nM	38.8 nM	5.2 nM	451 nM	3.8 nM
C[C@]1(O)CC[C@@H](Nc2cc(Nc3ccnc(-c4cnn(S(=O)(=O)C5CC5)c4)n3)ncc2C(=O)CC2CCOCC2)CC1 [Example 40, 1-(6-((2-(1-(Cyclopropylsulfonyl)-1H-pyrazol-4-yl)pyrimidin-4-yl)amino)-4-(((1s,4s)-4-hydroxy-4-methylcyclohexyl)amino)pyridin-3-yl)-2-(tetrahydro-2H-pyran-4-yl)ethan-1-one]	64.5 nM	3.1 nM	0.2 nM	5.1 nM	0.4 nM	> 10000 nM	16.3 nM	–	189 nM	0.6 nM
